The values that follow are results of earlier work, collected in patent US20140051733A1, “FEBUXOSTAT PHARMACEUTICAL COMPOSITIONS” (Dr. Reddy's Laboratories Ltd., priority 2012, published 2014).

Like-named read-outs stand apart in the source and are kept apart here.

For data set [1] the following is noted: Class 2 = low solubility, high permeability.

`Cc1nc(-c2ccc(OCC(C)C)c(C#N)c2)sc1C(=O)O` [Febuxostat, 2-[3-cyano-4-(2-methylpropoxy)phenyl]-4-methylthiazole-5-carboxylic acid]: in data set [1], the “Biopharmaceutics Classification System class” value is reported as “Class 2”. Further, the solubility entry is listed as “slightly soluble” (in acetonitrile); “freely soluble” (in dimethylformamide); “soluble” (in dimethylsulfoxide); “sparingly soluble” (in ethanol); “slightly soluble” (in methanol); “practically insoluble” (in water).
